Converted amounts (≈) assume the structure as drawn.
Experiments:
[1] = system: Folsomia candida; settings: chronic/long-term; duration: 28 days; reproduction
[2] = system: Tagia sp.; settings: chronic/long-term; growth
[3] = system: Typhlodromus pyri; assay: LR50; higher = less toxic; settings: chronic/long-term; duration: 14 days; mortality
[4] = system: Aphidius rhopalosiphi; assay: LR50; higher = less toxic; settings: acute; duration: 48 hours; mortality
[5] = chronic
[6] = system: Poephila guttata; settings: acute; oral; unspecified; mortality
[7] = system: Cyprinodon variegatus; settings: acute; duration: 96 hours; mortality
[8] = system: Pimephales promelas; settings: chronic/long-term; duration: 35 days; reproduction
[9] = system: Xenopus laevis; settings: chronic/long-term; duration: 21 days; growth
[10] = system: Rattus norvegicus
[11] = system: Apis mellifera; settings: acute, mortality
[12] = system: Anas platyrhynchos; settings: chronic/long-term

Compound | NOEC [1] | NOEC [2] | LR50 [3] | LR50 [4] | NOEC [5] | LD50 [6] | LC50 [7] | NOEC [8] | NOEC [9] | LD50 ([10]; acute, oral, mortality) | NOAEL ([10]; developmental, development) | LD50 ([11]; dermal) | LD50 ([11]; oral, unspecified) | NOAEL [12]
CC(=N)N(C)Cc1ccc(Cl)nc1 [Acetamiprid metabolite (IM-1-5)] | 12.5 mg/kg | 62.5 mg/kg |  |  |  |  |  |  |  |  |  |  |  | 
CC(=NC#N)N(C)Cc1ccc(Cl)nc1 [Acetamiprid] | 0.27 mg/kg |  | 29.7 g/ha | 2 g/ha | 0.0011 mg/L | 5.7 mg/kg-day | 100 mg/L (≈ 449 µM) | 9.4 mg/L | 2.6 mg/L | 146 mg/kg-day | 2.5 mg/kg-day | 9.26 µg/piece | 8.85 µg/piece | 9.5 mg/kg-day

Reference: EPA's ToxValDB 9.5 (doi:10.2903/j.efsa.2016.4610)
